The values below come from article PMC10526274, “Epithelial-Immune Cell Crosstalk Determines the Activation of Immune Cells In Vitro by the Human Cathelicidin LL-37 at Low Physiological Concentrations” (Biomolecules, 2023).

This assay deals with monocytes in Caco-2/Monocytes co-culture. Nature of the assay: Multiplex phosphoprotein signaling in monocyte lysates, Caco-2/monocytes co-culture + LL-37. The assay is classed as cell-based, human. As to conditions: monocyte lysate, 1 µM LL-37, 2 h, mean MFI normalized to β-tubulin. The protocol:
Primary blood monocytes were isolated from PBMCs by plastic adhesion in the wells of a 24-well plate 24 h prior to the experiment. For that, 2 × 10^6 PBMC were seeded in each well in 2 mL of RPMI-1640 without supplements and kept for 1 h in a humidified CO2-incubator (5% CO2, 37 °C). Then, the adhered monocytes were thoroughly washed 3 times with the culture medium without supplements, and 600 µL of the complete RPMI-1640, supplemented with 10% Human AB serum, was added into each well. Then, 24 h later, the medium in the wells of a 24-well plate was replaced by a fresh medium with or without 1 µM of LL-37, and the permeable inserts with Caco-2 monolayers with TEER > 400 Ω × cm^2, containing 400 μL of the complete medium in their apical chamber, were immediately placed into the appropriate wells for 2 h. Then, 2 h later, the culture medium and the inserts were carefully removed, and the cells in each well were washed with PBS and lysed in 100 µL of MILLIPLEX MAP Lysis Buffer (cat. #43-040, Merck, Darmstadt, Germany), containing phosphatase inhibitors including 1 mM sodium orthovanadate (Na3VO4). To prevent protein degradation, a protease inhibitor cocktail (cat. #535140, Merck) was freshly added to the MILLIPLEX MAP Lysis Buffer. Cell lysate preparation was performed in accordance with the manufacturer’s instructions.
The phosphorylation of the following key cell signaling kinases and transcription factors was measured in cell lysates by using the MILLIPLEX multi-pathway magnetic bead 9-plex kit (#48-680MAG, Merck), containing phosphorylation state-specific antibodies: ERK/MAP kinase 1/2 (Thr185/Tyr187), Akt (Ser473), STAT3 (Ser727), JNK (Thr183/Tyr185), p70S6 kinase (Thr412), NF-κB (Ser536), STAT5A/B (Tyr694/699), CREB (Ser133), and p38 (Thr180/Tyr182). β-Tubulin MAPmate magnetic beads (#46-713MAG, Merck) were used as an assay normalization control to normalize the total protein level between the samples. A multiplex assay was carried out in accordance with the manufacturer’s instructions with overnight incubation of the samples with primary antibodies to phosphorylated signaling proteins on the MAGPIX system (Merck) using the xPONENT 4.2 software (Merck). The final analysis of the acquired fluorescence data was performed with the MILLIPLEX Analyst v5.1 software (Merck). Normalized MFI values were compared with an unpaired two-sample t-test using GraphPad Prism v.8.0.1 (GraphPad Software). The p-values ≤ 0.05 were considered significant.

As to “LL-37: the only human cathelicidin, host defense antimicrobial peptide of 37 a.a. residues, produced by solid-phase peptide synthesis”, for the setting “control 0.06”, the “phosphorylated STAT3” value was 0.06 MFI. Moreover, under “control 0.09”, the “phosphorylated NF-kB” value stood at 0.09 MFI and the “phosphorylated STAT5” value came out at 0.09 MFI. Also, the “phosphorylated JNK” value (control 48.84) is 176.7 MFI. Also, the “phosphorylated p70S6K” value (control 472.48) turned out to be 902.08 MFI. Besides, the “phosphorylated Akt” value (control 2712) came to 2358 MFI. Moreover, the “phosphorylated ERK 1/2” value (control 5812) is 11464 MFI. Besides, the “phosphorylated p38” value (control 17697) turned out to be 21951 MFI. Also, the “phosphorylated CREB” value (control 81479) turned out to be 106317 MFI.
